# Measurements: patent publication US7238778B2, “Crystallized glucocorticoid receptor ligand binding domain polypeptide and screening methods employing same” (SmithKline Beecham Corporation, priority 2001, dated 2007)
# Experiments:
# [1] = target: T1, GST-GR LBD (F602S) 521–777 (Homo sapiens, UniProt P04150, F602S); assay: Surface plasmon resonance (Biacore) binding of GST-GR LBD to immobilized TIF2 LXXLL peptide
# T1 construct: GR-LBD(521–777) F602S; made in house; host or cells: E. coli BL21(DE3); TIF2 peptide made by chemical synthesis
# T1 sequence (P04150 521-777 F602S): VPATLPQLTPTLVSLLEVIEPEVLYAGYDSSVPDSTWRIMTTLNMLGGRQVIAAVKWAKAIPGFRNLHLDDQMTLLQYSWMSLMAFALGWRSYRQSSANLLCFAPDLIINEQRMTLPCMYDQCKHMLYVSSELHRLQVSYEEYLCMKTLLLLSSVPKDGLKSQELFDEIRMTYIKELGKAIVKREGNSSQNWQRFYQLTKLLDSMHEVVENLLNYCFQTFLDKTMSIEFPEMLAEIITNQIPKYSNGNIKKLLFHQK
# Protocol: Each point is the average of two determinations.
# FIG. 2B was generated using Biacore techniques. Biacore relies on changes in the refractive index at the surface layer upon binding of a ligand to a protein immobilized on the layer. In this system, a collection of small ligands is injected sequentially in a 2–5 microliter cell, wherein the protein is immobilized within the cell. Binding is detected by surface plasmon resonance (SPR) by recording laser light refracting from the surface. […] The purified protein is then used in the assay without further preparation. A synthetic peptide with an amino-terminal biotin is coupled to a sensor chip immobilized with streptavidin. The chip thus prepared is then exposed to the potential ligand via the delivery system incorporated in the instruments sold by Biacore (Uppsala, Sweden) to pipet the ligands in a sequential manner (autosampler). The SPR signal on the chip is recorded and changes in the refractive index indicate an interaction between the immobilized target and the ligand. Analysis of the signal kinetics of on rate and off rate allows the discrimination between non-specific and specific interaction.
# [2] = target: GR LBD (F602S) 521–777 (Homo sapiens, UniProt P04150, F602S); conditions: GST-GR fusion protein and cleaved GR LBD alone; 10 nM fluorescein dexamethasone, competed with 100 uM unlabeled dexamethasone (FIG. 2A)
# Protocol: FIG. 2A is a graph depicting the binding of 10 nM fluorescein dexamethasone to varied concentrations of GST-GR LBD (F602S) 521–777 (circles), GR LBD (F602S) 521–777 (triangles) and GR LBD (F602S) 521–777 in the presence of 100 uM unlabeled dexamethasone (squares) as measured by fluorescence polarization.
# All experiments were conducted with buffer containing 10 mM HEPES pH 7.4, 0.15 M NaCl, 3 mM EDTA, 0.005% polysorbate-20 and 5 mM DTT. For activity determinations, 10 nM of fluorescein dexamethasone (Molecular Probes, Eugene, Ore.) was titrated with increasing concentrations of the glucocorticoid receptor in black 96-well plates (CoStar, Cambridge, Mass.). The fluorescence polarization values for each concentration of receptor were determined using a BMG PolarStar Galaxy fluorescence plate reader (BMG Labtechnologies GmbH, Offenburg, Germany) with 485 nm excitation and 520 nm emission filters. Binding isotherms were constructed and apparent EC50 values were determined by non-linear least squares fit of the data to an equation for a simple 1:1 interaction. […] For stability studies, the fluorescent polarization of 10 nM fluorescein dexamethasone with 1 μM GST-GR LBD 521–777 (F602S) is read at specific time intervals in the presence or absence of 25 uM of a peptide derived from the coactivator TIF2.
# [3] = target: T2, GST-GR LBD 521–777 (F602S) (Homo sapiens, UniProt P04150, F602S); assay: Stability of GR dexamethasone binding activity over time by fluorescence polarization; conditions: 25 uM peptide, 1 μM GST-GR LBD, 10 nM fluorescein dexamethasone (FIG. 2C)
# T2 construct: GR-LBD(521–777) F602S; made in house; host or cells: E. coli BL21(DE3)
# T2 sequence (P04150 521-777 F602S): T1 sequence (P04150 521-777 F602S)
# Protocol: FIG. 2C is a graph depicting that TIF2 coactivator peptide enhances stability of GR dexamethasone binding activity. The effect of 25 uM coactivator peptide TIF2 732–756 (diamonds) or no peptide (squares) on the binding of GST-GR LBD (F602S) 521–777 to 10 nM fluorescein dexamethasone with time is determined by fluorescence polarization.
# Sequence of GR LBD (F602S) 521–777 (P04150 with tags, fused parts or gaps F602S): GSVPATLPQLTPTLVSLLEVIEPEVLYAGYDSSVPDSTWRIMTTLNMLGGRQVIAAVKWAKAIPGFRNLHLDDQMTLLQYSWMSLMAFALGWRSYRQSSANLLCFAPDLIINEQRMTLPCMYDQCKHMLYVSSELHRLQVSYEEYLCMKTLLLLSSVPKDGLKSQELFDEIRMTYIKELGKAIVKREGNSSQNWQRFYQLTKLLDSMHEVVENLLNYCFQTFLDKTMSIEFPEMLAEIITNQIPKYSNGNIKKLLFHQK
substance,measurement,setting,value
"(11β, 16α)-9-fluoro-11β,17,21-trihydroxy-16α-methylpregna-1-4-diene-3,20-dione [dexamethasone]",effect of ligand on binding of the GST-GR fusion protein to the TIF2 peptide,[1]; five-fold excess of compound over GST-GR LBD (F602S) (FIG. 2B),enhanced
same,binding of dexamethasone to GR,[2],saturable and competable
QEPVSPKKKENALLRYLLDKDDTKD [TIF2 peptide],affinity of the TIF2 coactivator peptide for the GST-GR fusion protein,[1]; immobilized TIF2 732–756 peptide (FIG. 2B),submicromolar
same,effect on the dexamethasone binding activity of the GST-GR fusion protein with time,[3],stabilizes
